Measured values published in patent publication US6489514B1, “(-)-Secoisolariciresinol as an antioxidant obtained from a new natural source namely stereospermum personatum” (Council of Scientific and Industrial Research, priority 2001, dated 2002).

How the values were obtained:
[1] = Japanese Pat No. JP02,101,011; cited from earlier work
[2] = In vitro free radical scavenging antioxidant potency (DPPH); type: biochemical; conditions: 500 μM DPPH in ethanol, tris-HCl buffer pH 7.4, 45 minutes in dark, absorbency at 517 nm, triplicate
Method: Antioxidant activity of the compounds was tested for its capacity/potency to scavenge most widely used free radical, 1,1-diphenyl-2-picryl hyrazyl radical (DPPH). […] 200 μl of test compounds were reconstituted to 1 ml in tris-HCl buffer (pH 7.4). […] After incubation for 45 minutes in dark, the absorbency at 517 nm was recorder. Percent radical scavenging activity was calculated accordingly. All the readings were taken in triplicate.

[3] = Japanese Pat. No. JP0131J17; cited from earlier work
SHBG = molecular target: T1, SHBG (Homo sapiens, UniProt P04278); conditions: Z. Naturforsch, C. Biosc. 997,52,834-843; cited from earlier work
T1 sequence (P04278 30-402): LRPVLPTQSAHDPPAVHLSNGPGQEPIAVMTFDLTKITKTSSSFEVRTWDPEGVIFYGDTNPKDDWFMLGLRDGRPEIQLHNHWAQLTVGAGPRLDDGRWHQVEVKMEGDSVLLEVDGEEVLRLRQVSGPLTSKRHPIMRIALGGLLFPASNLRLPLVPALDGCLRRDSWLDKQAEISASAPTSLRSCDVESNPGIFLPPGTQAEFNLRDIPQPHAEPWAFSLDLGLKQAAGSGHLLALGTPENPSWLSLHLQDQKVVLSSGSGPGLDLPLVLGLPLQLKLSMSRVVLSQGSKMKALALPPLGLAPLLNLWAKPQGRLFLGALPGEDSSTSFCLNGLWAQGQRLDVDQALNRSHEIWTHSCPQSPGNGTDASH

Row | Structure (SMILES) | Activity: cardiotonic [1] [Cardiotonic] | 50% Radical scavenging concentration [2] [µg/mL] | Activity: antitumor [3] [Antitumor agent] | Activity: binding to SHBG (SHBG)
1 | COc1cc(CC(CO)C(CO)Cc2ccc(O)c(OC)c2)ccc1O (single isomer, unassigned; (-)) [(−)-Secoisolariciresinol, 2,3Bis-[4-hydroxy-3-(methoxyphenyl)methyl]-1,4-butanediol] | 2. | 13.72 | 1. | 3. Binding to SHBG
2 | Cc1c(C)c2c(c(C)c1O)CCC(C)(CCCC(C)CCCC(C)CCCC(C)C)O2 (stereo not drawn) [DL α- Tocopherol, reference compound] |  | 47.80 |  | 
